# According to patent US6417187B2, “1,2,4-triazole based compounds that can be used as insecticides or acaricides and processes” (Dow AgroSciences LLC, priority 2000, dated 2002):
# Columns and labels:
# Type in all cases: in vivo
# [1] = test system: cotton aphid (Aphis gossvpii); assay: Insecticidal test for cotton aphid (squash cotyledon spray)
# [2] = test system: cabbage looper (Trichoplusia ni); assay: Insecticidal test for cabbage looper (cabbage leaf-disc dip)
# [3] = test system: tobacco budworm (Heliothis virescens); assay: Insecticidal test for tobacco budworm (cotton cotyledon leaf-disc dip)
# [4] = test system: Sweetpotato Whitefly (Bemisia tabacia); assay: Insecticidal test for Sweetpotato Whitefly (cotton plant spray)
# [5] = test system: beet armyworm (Spodoptera exigua); assay: Insecticidal test for beet armyworm (treated lepidopteran diet)
# [6] = test system: Brown Planthopper (Nilaparvata lugens); assay: Insecticidal test for Brown Planthopper (rice seedling roots in test solution)
# [7] = test system: Green Leafhopper (Nephotettix cincticeps); assay: Insecticidal test for Green Leafhopper (rice seedling roots in test solution)
# [8] = test system: two-spotted spider mite (Tetranychus urticae); assay: Insecticidal test for two-spotted spider mite, ovicide method; settings: 2.5 ppm (table footnote), ovicide method on cotton leaf discs, 6 days
# [9] = 50 ppm spray on infested squash cotyledons, 3 days, population reduction versus untreated
# [10] = 400 ppm, cabbage leaf-dip, 2nd instar larvae, 5 days
# [11] = 400 ppm, cotton cotyledon leaf-dip, 2nd instar larvae, 5 days
# [12] = 200 ppm spray on cotton plants, 13 days, reduction of large nymphs
# [13] = 400 ppm, treated diet, second-instar larvae, 5 days
# [14] = 10 ppm test solution, rice seedling roots, 3rd instar nymphs, mortality at 6 days
SMILES,"CA: activity at 50 ppm against cotton aphid (% Control rating) [1, 9]","CL: activity at 400 ppm against cabbage looper (% Control rating) [2, 10]","TBW: activity at 400 ppm against tobacco budworm (% Control rating) [3, 11]","WF: activity at 200 ppm against whitefly (% Control rating) [4, 12]","BAW: activity at 400 ppm against beet armyworm (% Control rating) [5, 13]","BPH: activity at 10 ppm against brown planthopper (% Control rating) [6, 14]",further results
Cc1cc(F)ccc1C#Cc1sc(-c2nc(-c3c(F)cccc3Cl)nn2C)c(Cl)c1Cl [Compound 52],D (60-69),A (90-100),A (90-100),F (less than 50),A (90-100),,
Cn1nc(-c2c(F)cccc2Cl)nc1-c1sc(C#Cc2ccccc2F)c(Cl)c1Cl [Compound 9],,A (90-100),A (90-100),F (less than 50),B (80-89),F (less than 50),
"Cn1nc(-c2c(F)cccc2Cl)nc1-c1ccc(C#Cc2ccc(C(F)(F)F)cc2)c(Cl)c1Cl [Compound 94, 1-Methyl-3-(2-Chloro-6-fluorophenyl)-5-(2,3-dichloro-4-(2-(4-trifluoromethyl)phenyl)-ethynyl-phenyl)-1 H[1,2,4]triazole]",,,,,,,"pest or weed control at 50 ppm ([1]; 72 h, 50 ppm spray on infested squash cotyledons, 3 days, population reduction versus untreated, read-out: CA: activity at 50 ppm against cotton aphid (% Control rating)): 80 to 89%; pest or weed control at 400 ppm ([2]; Trichoplusia ni, 120 h, 400 ppm, cabbage leaf-dip, 2nd instar larvae, 5 days, read-out: CL: activity at 400 ppm against cabbage looper (% Control rating)): 90 to 100%; pest or weed control at 400 ppm ([3]; Heliothis virescens, 120 h, 400 ppm, cotton cotyledon leaf-dip, 2nd instar larvae, 5 days, read-out: TBW: activity at 400 ppm against tobacco budworm (% Control rating)): 60 to 69%; pest or weed control at 200 ppm ([4]; Bemisia, 312 h, 200 ppm spray on cotton plants, 13 days, reduction of large nymphs, read-out: WF: activity at 200 ppm against whitefly (% Control rating)): < 50%; pest or weed control at 400 ppm ([5]; Spodoptera exigua, 120 h, 400 ppm, treated diet, second-instar larvae, 5 days, read-out: BAW: activity at 400 ppm against beet armyworm (% Control rating)): 90 to 100%"
Cn1nc(-c2c(F)cccc2Cl)nc1-c1sc(C#Cc2ccc(-c3ccccc3)cc2)c(Cl)c1Cl [Compound 16],F (less than 50),D (60-69),,F (less than 50),F (less than 50),F (less than 50),"GLH: activity at 10 ppm against green leafbopper (% Control rating) [7, 14]: F (less than 50)"
CCCCCCc1ccc(C#Cc2sc(-c3nc(-c4c(F)cccc4Cl)nn3C)c(Cl)c2Cl)cc1 [Compound 54],,,,,,,CA: activity at 50 ppm against cotton aphid (% Control rating) ([1]; in vivo): E (key: A: 90-100; B: 80-89; C: 70-79; D: 60-69; E: 50-59; F: less than 50; G: inactive); BPH: activity at 10 ppm against brown planthopper (% Control rating) ([6]; in vivo): F (key: A: 90-100; B: 80-89; C: 70-79; D: 60-69; E: 50-59; F: less than 50; G: inactive); GLH: activity at 10 ppm against green leafbopper (% Control rating) ([7]; in vivo): F (key: A: 90-100; B: 80-89; C: 70-79; D: 60-69; E: 50-59; F: less than 50; G: inactive); CL: activity at 400 ppm against cabbage looper (% Control rating) ([2]; in vivo): B (key: A: 90-100; B: 80-89; C: 70-79; D: 60-69; E: 50-59; F: less than 50; G: inactive); TBW: activity at 400 ppm against tobacco budworm (% Control rating) ([3]; in vivo): A (key: A: 90-100; B: 80-89; C: 70-79; D: 60-69; E: 50-59; F: less than 50; G: inactive); WF: activity at 200 ppm against whitefly (% Control rating) ([4]; in vivo): F (key: A: 90-100; B: 80-89; C: 70-79; D: 60-69; E: 50-59; F: less than 50; G: inactive); BAW: activity at 400 ppm against beet armyworm (% Control rating) ([5]; in vivo): A (key: A: 90-100; B: 80-89; C: 70-79; D: 60-69; E: 50-59; F: less than 50; G: inactive)
CCCc1ccc(C#Cc2cc(C)c(-c3nc(-c4c(F)cccc4Cl)nn3C)s2)cc1 [Compound 72],C (70-79),B (80-89),,F (less than 50),A (90-100),F (less than 50),SM: activity at 2.5 ppm against two-spotted spider mite (% Control rating) [8]: F (less than 50)
CCCc1ccc(C#Cc2ccc(-c3nc(-c4c(F)cccc4Cl)nn3C)c(Cl)c2Cl)cc1 [Compound 90],,,,,,,CA: activity at 50 ppm against cotton aphid (% Control rating) ([1]; in vivo): B (key: A: 90-100; B: 80-89; C: 70-79; D: 60-69; E: 50-59; F: less than 50; G: inactive); BPH: activity at 10 ppm against brown planthopper (% Control rating) ([6]; in vivo): E (key: A: 90-100; B: 80-89; C: 70-79; D: 60-69; E: 50-59; F: less than 50; G: inactive); GLH: activity at 10 ppm against green leafbopper (% Control rating) ([7]; in vivo): F (key: A: 90-100; B: 80-89; C: 70-79; D: 60-69; E: 50-59; F: less than 50; G: inactive); CL: activity at 400 ppm against cabbage looper (% Control rating) ([2]; in vivo): A (key: A: 90-100; B: 80-89; C: 70-79; D: 60-69; E: 50-59; F: less than 50; G: inactive); WF: activity at 200 ppm against whitefly (% Control rating) ([4]; in vivo): F (key: A: 90-100; B: 80-89; C: 70-79; D: 60-69; E: 50-59; F: less than 50; G: inactive); BAW: activity at 400 ppm against beet armyworm (% Control rating) ([5]; in vivo): A (key: A: 90-100; B: 80-89; C: 70-79; D: 60-69; E: 50-59; F: less than 50; G: inactive)
CCCc1ccc(C#Cc2sc(-c3nc(-c4c(F)cccc4Cl)nn3CC)c(Cl)c2Cl)cc1 [Compound 81],F (less than 50),D (60-69),F (less than 50),F (less than 50),A (90-100),,
